Reference: patent publication US8263606B2 (Xenon Pharmaceuticals Inc., priority 2008, dated 2012)
pIC50: −log10 of the molar value.

Tests used:
sodium channel = experiment: Guanidine influx assay (14C-guanidine radiotracer flux, in vitro); format: cell-based, human or rat; conditions: guanidine influx assay using a known cell line that expresses a sodium channel
Procedure, shortened: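 Test agents at half-step dilutions around 1 μM are added to plated cells in low-sodium HEPES buffer, then an aconitine/14C-guanidine mixture; after ambient-temperature incubation, cells are washed and counted. IC50 comes from a sigmoidal fit.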

CYP3A4 = CYP3A4 (Homo sapiens, UniProt P08684); experiment: Cytochrome P450 (CYP450) Inhibition Assay, CYP3A4 (Vivid fluorescence, BOMCC substrate); conditions: human, P450 Baculosomes (recombinant CYP3A4), probe BOMCC (Vivid substrate)
Chain of CYP3A4 (P08684 whole entry): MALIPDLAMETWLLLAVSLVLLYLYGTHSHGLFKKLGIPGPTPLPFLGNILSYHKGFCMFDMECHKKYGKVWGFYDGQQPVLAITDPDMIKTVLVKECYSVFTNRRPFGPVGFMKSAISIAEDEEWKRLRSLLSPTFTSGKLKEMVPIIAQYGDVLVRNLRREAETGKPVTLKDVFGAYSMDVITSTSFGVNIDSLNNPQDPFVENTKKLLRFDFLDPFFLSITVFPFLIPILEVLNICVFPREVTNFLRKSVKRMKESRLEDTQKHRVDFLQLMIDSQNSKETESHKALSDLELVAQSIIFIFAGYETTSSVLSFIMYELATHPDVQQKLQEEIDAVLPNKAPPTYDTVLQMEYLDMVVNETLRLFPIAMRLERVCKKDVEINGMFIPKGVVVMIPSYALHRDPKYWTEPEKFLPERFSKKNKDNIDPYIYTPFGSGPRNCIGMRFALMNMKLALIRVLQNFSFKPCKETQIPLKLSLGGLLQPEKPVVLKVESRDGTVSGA

Work on `NC(=O)c1cc(CN2C(=O)C3(COc4cc5c(cc43)OCO5)c3ccccc32)oc1C(F)(F)F` (stereo not drawn) [Example 12.58, 5-[(2′-oxospiro[furo[2,3-f][1,3]benzodioxole-7,3′-indol]-1′(2′H)-yl)methyl]-2-(trifluoromethyl)furan-3-carboxamide] yielded a pIC50 (sodium channel) of 7.00 to 9.00, a melting point of 172 to 174 °C and an inhibition at 10 µM (CYP3A4) of over 50%.

Compound `COc1cc2c(cc1C#N)C1(CO2)C(=O)N(Cc2ccccn2)c2ccccc21` (stereo not drawn) [Example 9.47, 6-methoxy-2′-oxo-1′-(pyridin-2-ylmethyl)-1′,2′-dihydrospiro[1-benzofuran-3,3′-indole]-5-carbonitrile] has a pIC50 (sodium channel; activity level class) of 5.00 to 6.00, a melting point of 187 to 189 °C and an inhibition at 10 µM (CYP3A4) of over 50%.

Compound `N#CCN1C(=O)C2(COc3cc4c(cc32)OCO4)c2c(Cl)cccc21` (stereo not drawn) [Example 4.84] has a pIC50 (sodium channel; activity level class) of 6.00 to 7.00, a melting point of 122 to 123 °C and an inhibition at 10 µM (CYP3A4) of under 50%.

`O=C1N(Cc2cccc(OCc3ccccc3)c2)c2ccccc2C12COc1cc3c(cc12)CCO3` (stereo not drawn) [Example 9.11, 1′-[3-(benzyloxy)benzyl]-5,6-dihydrospiro[benzo[1,2-b:5,4-b′]difuran-3,3′-indol]-2′(1′H)-one] showed a pIC50 (sodium channel; activity level class) of 6.00 to 7.00, a melting point of 66 to 68 °C and an inhibition at 10 µM (CYP3A4) of under 50%.

In the case of `CC(C)c1nc(CN2C(=O)C3(COc4cc5c(cc43)OCO5)c3ccccc32)no1` (stereo not drawn) [Example 11.26, 1′-{[5-(1-methylethyl)-1,2,4-oxadiazol-3-yl]methyl}spiro[furo[2,3-f][1,3]benzodioxole-7,3′-indol]-2′(1′H)-one], the pIC50 (sodium channel) was 7.00 to 9.00, the melting point was 196 to 199 °C and the inhibition at 10 µM (CYP3A4) was over 50%.

`O=C1N(Cc2ncccc2C(F)(F)F)c2ccccc2C12COc1c(Cl)cc3c(c12)OCCO3` (stereo not drawn) [Example 11.108, 6-chloro-1′-{[3-(trifluoromethyl)pyridin-2-yl]methyl}-2,3-dihydrospiro[furo[3,2-f][1,4]benzodioxine-9,3′-indol]-2′(1′H)-one] gave a pIC50 (sodium channel) of 5.00 to 6.00, a melting point of 273 to 275 °C and an inhibition at 10 µM (CYP3A4) of under 50%.

Work on `O=C1N(Cc2nc3ccccc3s2)c2ccccc2C12COc1cc3c(cc12)OCCO3` (stereo not drawn) [Example 4.119, 1-(1,3-benzothiazol-2-ylmethyl)-2,3-dihydrospiro[furo[2,3-g][1,4]benzodioxine-8,3′-indol]-2′(1′H)-one] yielded a pIC50 (sodium channel; activity level class) of 7.00 to 9.00, a melting point of 164 to 166 °C and an inhibition at 10 µM (CYP3A4) of over 50%.

For `CN1C(=O)CC[C@H]1CN1C(=O)C2(COc3cc4c(cc32)CCO4)c2ccccc21` (stereo partly drawn) [Example 11.70, 1′-{[(2S)-1-methyl-5-oxopyrrolidin-2-yl]methyl}-5,6-dihydrospiro[benzo[1,2-b:5,4-b′]difuran-3,3′-indol]-2′(1′H)-one], the pIC50 (sodium channel) was 5.00 to 6.00, the melting point was 72 to 76 °C and the inhibition at 10 µM (CYP3A4) was over 50%.

For `Cc1c(F)cccc1NC(=O)c1ccc(CN2C(=O)C3(COc4cc5c(cc43)CCO5)c3ccccc32)cc1` (stereo not drawn) [Example 12.44, N-(3-fluoro-2-methylphenyl)-4-[(2′-oxo-5,6-dihydrospiro[benzo[1,2-b:5,4-b′]difuran-3,3′-indol]-1′(2′H)-yl)methyl]benzamide], the pIC50 (sodium channel) was 5.00 to 6.00, the melting point was 143 to 144 °C and the inhibition at 10 µM (CYP3A4) was under 50%.

Work on `COc1ccc2c(c1)OCC21C(=O)N(Cc2ccccn2)c2ccccc21` (stereo not drawn) [Example 9.33, 6-methoxy-1′-(pyridin-2-ylmethyl)-2H-spiro[benzofuran-3,3′-indolin]-2′-one] yielded a pIC50 (sodium channel; activity level class) of 7.00 to 9.00, a melting point of 122 to 123 °C and an inhibition at 10 µM (CYP3A4) of under 50%.

Work on `O=C1N(Cc2ccccc2C(F)(F)F)c2ccccc2C12COc1cc3c(cc12)OCCO3` (stereo not drawn) [Example 4.113, 1′-[2-(trifluoromethyl)benzyl]-2,3-dihydrospiro[furo[2,3-g][1,4]benzodioxine-8,3′-indol]-2′(1′H)-one] yielded a pIC50 (sodium channel; activity level class) of 7.00 to 9.00, a melting point of 207 to 208 °C and an inhibition at 10 µM (CYP3A4) of under 50%.

Work on `O=C1N(Cc2ncccc2C(F)(F)F)c2ccccc2C12COc1cc3[nH]ncc3cc12` (stereo not drawn) [Example 46.2, 1′-((3-(trifluoromethyl)pyridin-2-yl)methyl)-1,6-dihydrospiro[furo[3,2-f]indazole-5,3′-indolin]-2′-one] yielded a pIC50 (sodium channel) of 6.00 to 7.00, a melting point of 152 to 154 °C and an inhibition at 10 µM (CYP3A4) of over 50%.

`CN1C(=O)[C@]2(COc3cc4c(cc32)OCO4)c2c(-c3ccoc3)cccc21` [Example 16.62, (7R)-4′-furan-3-yl-1′-methylspiro[furo[2,3-f][1,3]benzodioxole-7,3′-indol]-2′(1′H)-one] showed a pIC50 (sodium channel) of 6.00 to 7.00, a melting point of 144 to 145 °C and an inhibition at 10 µM (CYP3A4) of over 50%.

`O=C1N(Cc2ccccn2)c2ccc3ncsc3c2C12COc1cc3c(cc12)OCCO3` (stereo not drawn) [Example 9.72, 6′-(pyridin-2-ylmethyl)-2,3-dihydrospiro[furo[2,3-g][1,4]-benzodioxine-8,8′-[1,3]thiazolo[5,4-e]indol]-7′(6′H)-one] showed a pIC50 (sodium channel) of 6.00 to 7.00, a melting point of 156 to 158 °C and an inhibition at 10 µM (CYP3A4) of over 50%.

`Cc1nc2cc3c(cc2s1)C1(CO3)C(=O)N(Cc2ncc(Cl)n2C)c2ccccc21` (stereo not drawn) [Example 9.22, 1′-[(5-chloro-1-methyl-1H-imidazol-2-yl)methyl]-2-methylspiro[furo[2,3-f][1,3]benzothiazole-7,3′-indol]-2′(1′H)-one] showed a pIC50 (sodium channel; activity level class) of 5.00 to 6.00, a melting point of 177 to 178 °C and an inhibition at 10 µM (CYP3A4) of over 50%.

Compound `O=C1N(CCc2noc(C(F)(F)F)n2)c2ccccc2C12COc1cc3c(cc12)OCO3` (stereo not drawn) [Example 11.18, 1′-{2-[5-(trifluoromethyl)-1,2,4-oxadiazol-3-yl]ethyl}spiro[furo[2,3-f][1,3]benzodioxole-7,3′-indol]-2′(1′H)-one] has a pIC50 (sodium channel) of 7.00 to 9.00, a melting point of 45 to 48 °C and an inhibition at 10 µM (CYP3A4) of over 50%.

`COc1ccc(-c2ccc3c(c2)C2(CO3)C(=O)N(Cc3ccc(Cl)s3)c3ccccc32)cn1` (stereo not drawn) [Example 16.88, 1′-[(5-chloro-2-thienyl)methyl]-5-(6-methoxypyridin-3-yl)spiro[1-benzofuran-3,3′-indol]-2′(1′H)-one] gave a pIC50 (sodium channel) of 5.00 to 6.00, a melting point of 60 to 62 °C and an inhibition at 10 µM (CYP3A4) of over 50%.

`CC(C)NC(=O)N1CCCC(CCN2C(=O)C3(COc4cc5c(cc43)OCO5)c3ccccc32)C1` (stereo not drawn) [Example 11.73, N-isopropyl-3-[2-(2′-oxospiro[furo[2,3-f][1,3]benzodioxole-7,3′-indol]-1′(2′H)-yl)ethyl]piperidine-1-carboxamide] gave a pIC50 (sodium channel) of 6.00 to 7.00, a melting point of 206 to 208 °C and an inhibition at 10 µM (CYP3A4) of over 50%.

Work on `CNC(=O)c1cc(CN2C(=O)C3(COc4cc5c(cc43)OCO5)c3ccccc32)oc1C(F)(F)F` (stereo not drawn) [Example 12.57, N-methyl-5-[(2′-oxospiro[furo[2,3-f][1,3]benzodioxole-7,3′-indol]-1′(2′H)-yl)methyl]-2-(trifluoromethyl)furan-3-carboxamide] yielded a pIC50 (sodium channel) of 6.00 to 7.00, a melting point of 202 to 203 °C and an inhibition at 10 µM (CYP3A4) of over 50%.

`COc1ccc(CN2C(=O)C3(COc4cc5onc(N)c5cc43)c3ccccc32)cc1` (stereo not drawn) [Example 44, 3-amino-1′-(4-methoxybenzyl)spiro[furo[3,2-f][1,2]benzisoxazole-5,3′-indol]-2′(1′H)-one] showed a pIC50 (sodium channel) of 6.00 to 7.00, a melting point of 214 to 216 °C and an inhibition at 10 µM (CYP3A4) of over 50%.

Compound `Cc1ccc(F)c2c1NC(=O)C21COc2cc3c(cc21)CCO3` (stereo not drawn) [Example 3.17, 4′-fluoro-7′-methyl-5,6-dihydrospiro[benzo[1,2-b:5,4-b′]difuran-3,3′-indol]-2′(1′H)-one] has a pIC50 (sodium channel; activity level class) of 6.00 to 7.00, a melting point of over 250 °C and an inhibition at 10 µM (CYP3A4) of over 50%.

For `O=C1N(CCCOCc2ccccc2)c2ccccc2C12COc1cc3c(cc12)CCO3` (stereo not drawn) [Example 9.17, 1′-[3-(benzyloxy)propyl]-5,6-dihydrospiro[benzo[1,2-b:5,4-b′]difuran-3,3′-indol]-2′(1′H)-one], the pIC50 (sodium channel; activity level class) was 6.00 to 7.00, the melting point was 112 to 113 °C and the inhibition at 10 µM (CYP3A4) was over 50%.

With `O=C1N(Cc2noc(C(F)(F)F)n2)c2ccccc2C12COc1cc3c(cc12)OCO3` (stereo not drawn) [Example 11.72, 1-{[5-(trifluoromethyl)-1,2,4-oxadiazol-3-yl]methyl}spiro[furo[2,3-f][1,3]benzodioxole-7,3′-indol]-2′(1′H)-one] the pIC50 (sodium channel) was 7.00 to 9.00, the melting point was 139 to 140 °C and the inhibition at 10 µM (CYP3A4) was over 50%.

In the case of `O=C1N(C[C@H]2COCCO2)c2ccccc2C12COc1cc3c(cc12)OCO3` (stereo partly drawn) [Example 8, 1′-[(2S)-1,4-dioxan-2-ylmethyl]spiro[furo[2,3-f][1,3]benzodioxole-7,3′-indol]-2′(1′H)-one], the pIC50 (sodium channel; activity level class) was 7.00 to 9.00, the melting point was 147 to 149 °C and the inhibition at 10 µM (CYP3A4) was over 50%.

Compound `N#Cc1cc2c(cc1F)OCC21C(=O)N(Cc2ncccc2C(F)(F)F)c2ccccc21` (stereo not drawn) [Example 9.51, 6-fluoro-2′-oxo-1′-{[3-(trifluoromethyl)pyridin-2-yl]methyl}-1′,2′-dihydrospiro[1-benzofuran-3,3′-indole]-5-carbonitrile] has a pIC50 (sodium channel) of 5.00 to 6.00, a melting point of 209 to 211 °C and an inhibition at 10 µM (CYP3A4) of under 50%.

Work on `COc1ccc(CN2C(=O)C3(COc4cc5c(C)noc5cc43)c3ccccc32)cc1` (stereo not drawn) [Example 2.41, 1′-(4-methoxybenzyl)-3-methylspiro[furo[2,3-f][1,2]benzisoxazole-7,3′-indol]-2′(1′H)-one] yielded a pIC50 (sodium channel; activity level class) of 5.00 to 6.00, a melting point of 183 to 184 °C and an inhibition at 10 µM (CYP3A4) of over 50%.

Compound `CC(C)CCNCCCN1C(=O)C2(COc3cc4c(cc32)CCO4)c2ccccc21.Cl` (stereo not drawn) [Example 15.1, 1′-{3-[(3-methylbutyl)amino]propyl}-5,6-dihydrospiro[benzo[1,2-b:5,4-b′]difuran-3,3′-indol]-2′(1′H)-one hydrochloride] has a pIC50 (sodium channel) of 5.00 to 6.00, a melting point of 98 to 101 °C and an inhibition at 10 µM (CYP3A4) of over 50%.
